Literature values in US9943503B1, “Pharmaceutical composition for treating bacterial and viral infections” (priority 2017, dated 2018).

Tested on: common cold
Conditions: adults; review of evidence

Compound	prevention of the common cold, evidence
C=CCS[S+]([O-])CC=C (centres unmarked) [Allicin]	highly effective
O=C1O[C@H]([C@@H](O)CO)C(O)=C1O [vitamin C, ascorbic acid]	demonstrated benefit
